Assay results published in patent publication US20030036111A1, “Mitochondrial protein” (priority 2001, published 2003).

Key:
Assay type in all cases: biochemical
[1] = target: T1, human DNC (mitochondrial deoxynucleotide carrier) (Homo sapiens, UniProt Q9HC21); assay: Dependence of DNC activity ([α-35S]dATP uptake) on internal substrate; settings: internal substrate 10 mM; 2 min
T1 construct: Amino acids are numbered from 1-320; made in house; host or cells: E. coli BL21(DE3), pET21b; inclusion bodies solubilized in sarkosyl, Ni-NTA purified
T1 sequence (Q9HC21 2-320 limits assumed): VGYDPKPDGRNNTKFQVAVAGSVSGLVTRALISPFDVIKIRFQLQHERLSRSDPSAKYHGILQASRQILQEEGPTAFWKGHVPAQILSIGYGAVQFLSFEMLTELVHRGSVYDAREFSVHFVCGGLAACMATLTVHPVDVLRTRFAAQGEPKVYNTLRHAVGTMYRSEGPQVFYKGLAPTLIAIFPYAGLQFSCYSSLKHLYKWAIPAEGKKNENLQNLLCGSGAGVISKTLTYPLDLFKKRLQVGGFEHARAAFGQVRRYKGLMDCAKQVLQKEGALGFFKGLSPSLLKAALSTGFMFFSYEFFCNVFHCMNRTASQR
Procedure: FIG. 3. Time course of dATP/ADP exchange and substrate specificity of human DNC. (a) Time course of [α-35 S]dATP/ADP exchange in proteoliposomes reconstituted with the recombinant DNC. [α-35 S]dATP (1 mM) was added to proteoliposomes containing 10 mM ADP (⋄) or 10 mM NaCl (∇). (b) Dependence of DNC activity on internal substrate. Proteoliposomes were preloaded internally with various substrates (concentration 10 mM). Trans-port was started by addition of […] [α-35 S]dATP and stopped after 2 min. The values are means 6 SD of at least three experiments. (c) Inhibition of the rate of [α-35 S]dATP uptake by external substrates. Proteoliposomes were preloaded internally with 10 mM ADP. […] External substrates (concentration 0.5 mM) were added together with [α-35 S]dATP. The extents of inhibition (%) from a representative experiment are reported.
(§1) The recombinant protein in sarkosyl was reconstituted into liposomes in the presence of substrates (10). […] Transport was measured at 25° C. with internal and external pHs at 6.8. It was started by adding [α-35S]dATP or [^14C]-ADP and terminated after 2 min by addition of 100 mM of p-chloromercuribenzene sulfonate (10). Entrapped radioactivity was counted (10). The initial transport rate was calculated from the radioactivity taken up by proteoliposomes within 2 min (in the initial linear range). Other transport activities were assayed similarly (10).

[2] = target: T1, human DNC (mitochondrial deoxynucleotide carrier); assay: Kinetics of [α-35S]dATP/ADP exchange in proteoliposomes reconstituted with recombinant DNC; settings: for Km: external substrate, internal ADP or dADP 10 mM, read-out: transport affinity (Km)
Procedure: FIG. 3. Time course of dATP/ADP exchange and substrate specificity of human DNC. (a) Time course of [α-35 S]dATP/ADP exchange in proteoliposomes reconstituted with the recombinant DNC. [α-35 S]dATP (1 mM) was added to proteoliposomes containing 10 mM ADP (⋄) or 10 mM NaCl (∇). (b) Dependence of DNC activity on internal substrate. Proteoliposomes were preloaded internally with various substrates (concentration 10 mM). Trans-port was started by addition of […] [α-35 S]dATP and stopped after 2 min. The values are means 6 SD of at least three experiments. (c) Inhibition of the rate of [α-35 S]dATP uptake by external substrates. Proteoliposomes were preloaded internally with 10 mM ADP. Transport was started by adding […] [α-35 S]dATP and stopped after 2 min. External substrates (concentration 0.5 mM) were added together with [α-35 S]dATP. The extents of inhibition (%) from a representative experiment are reported. The control value for uninhibited exchange was 0.45 mmol/min per gram of protein.
The recombinant protein in sarkosyl was reconstituted into liposomes in the presence of substrates (10). Both cardiolipin (1.14 mg/ml) and EDTA (1 mM) were added. Transport was measured at 25° C. with internal and external pHs at 6.8. It was started by adding [α-35S]dATP or [^14C]-ADP and terminated after 2 min by addition of 100 mM of p-chloromercuribenzene sulfonate (10). Entrapped radioactivity was counted (10). The initial transport rate was calculated from the radioactivity taken up by proteoliposomes within 2 min (in the initial linear range). Other transport activities were assayed similarly (10). The amount of DNC incorporated into liposomes was measured as described (11) and varied between 15 and 20% of the protein added to the reconstitution mixture.

[3] = target: T1, human DNC (mitochondrial deoxynucleotide carrier); assay: Homo-exchange of other carrier substrates in DNC proteoliposomes; settings: internal concentration 10 mM; external concentration 1 mM
Procedure: as §1

rate of [α-35 S]dATP uptake into proteoliposomes with internal substrate [1] | Km [2] [µM] | homo-exchange catalysed by reconstituted DNC [3] | rate constant of exchange of [α-35 S]dATP for dADP or ADP (first-order kinetics) ([2]; reconstituted human DNC, 25° C., pH 6.8) [min⁻¹] | SMILES
virtually no activity | – | did not catalyse | – | C[N+](C)(C)CC(O)CC(=O)[O-] (stereo not drawn) [carnitine]
– | – | did not catalyse | – | NC(=O)CC[C@H](N)C(=O)O [glutamine]
– | – | did not catalyse | – | O=C(O)CC(O)C(=O)O (stereo not drawn) [malate]
– | – | did not catalyse | – | NCCC[C@H](N)C(=O)O [ornithine]

The remaining lines, values behind:

SMILES | rate of [α-35 S]dATP uptake into proteoliposomes with internal substrate [1] | Km [2] [µM] | homo-exchange catalysed by reconstituted DNC [3] | rate constant of exchange of [α-35 S]dATP for dADP or ADP (first-order kinetics) ([2]; reconstituted human DNC, 25° C., pH 6.8) [min⁻¹]
Nc1ncnc2c1ncn2[C@@H]1O[C@H](COP(=O)(O)OP(=O)(O)O)[C@@H](O)[C@H]1O [ADP] | highest rates | 42.6 ± 4.7 | – | –
Nc1ncnc2c1ncn2[C@H]1C[C@H](O)[C@@H](COP(=O)(O)OP(=O)(O)OP(=O)(O)O)O1 [dATP] | – | 106 ± 15 | – | 0.02
N[C@@H](CCC(=O)O)C(=O)O [glutamate] | – | – | did not catalyse | –
O=C(O)CCC(=O)C(=O)O [oxoglutarate] | virtually no activity | – | did not catalyse | –
